Where two headings read alike, the source gives them in different places. Primed or numbered codes have the meaning given here. Ends that are not written are not given here. TMR = fluorescent label conjugated to the Cys side chain; TMR″ = tetramethylrhodamine label
How the values were obtained:
λ-DNA [1] = conditions: cited from earlier work; for D1 ± s.e.: results from Xiong et al
phage λ DNA = test: Sliding assay: total internal reflection fluorescence microscopy of single TMR-labeled peptides on flow-stretched phage λ DNA; assay type: biochemical, bacteriophage λ; conditions: for estimated 1D diffusion constants, D: peptides diffusing along λ-DNA, low salt buffer (FIG. 6); for 1D diffusion constant, D+SD / 1D diffusion constant, D+SEM: single molecule sliding trajectories; for 1D diffusion constant, D+SD: spread = standard deviation (FIGS. 7-12); for 1D diffusion constant, D+SEM: spread = standard mean error (FIGS. 7-12)
Description: In vitro biophysical characterization of search process may be as follows. The search dynamics may be studied in vitro by directly observing fluorescently tagged compounds search DNA and bind their targets with a fluorescence microscope. In an exemplary method, linear fragments of DNA derived from bacteriophage λ (˜50 kb) are tethered on a glass coverslip and illuminated with TIRF microscopy. Flowing fluorescently tagged peptides over the coverslip stretches out the DNA hydrodynamically, and the peptides may be directly visualized as they search the DNA. Using computational algorithms, the peptides may be tracked and biophysical parameters such as the rate of diffusive translocation on DNA may be calculated from the estimated trajectories.
[…]. A flow cell was constructed on top of the cover slip such that when laminar flow is applied, the DNA stretches in the direction of flow and orients itself parallel to and in close proximity to the surface of the cover slip. Evanescent waves from a laser reflecting off the coverslip-buffer interface were used to illuminate a very small volume (˜1 pL) with a few hundred nanometers of the glass surface. The interaction of a single, TMR-labeled peptide with DNA was visualized by a CMOS camera (ORCA-Flash 4.0 from Hamamatsu) with 5 ms time-resolution. Despite the optical resolution limit imposed by diffraction, the centroid position of each signal in each frame is determined with sub-diffraction-limited resolution, typically 1-30 nm for bright fluorescent conjugates.
Labeled peptides were infused at concentration of 100-200 pM at rates of 20-50 mL/hour. High flow rates were chosen to drive the longitudinal DNA fluctuation faster than the imaging frame rate. The assay buffer consisted of 10 mM PBS (2 mM NaCl, 0.1 mM β-mercaptoethanol, 0.05 mM EDTA, 5% (v/v) glycerol, 0.01% (v/v) Tween-20, pH 6.8).

30 bp dsDNA [2] = test: Fluorescence polarization (FP) DNA binding experiments; conditions: Table S5; pH 7.4
λ-DNA [3] = test: Single molecule flow stretching experiments (1D diffusion of dye-labeled molecular sleds on λ-DNA); assay type: biochemical, bacteriophage λ; conditions: for D1 ± s.e.: Table S5, 2 mM NaCl buffer, pH 7.4, >50 trajectories
Description: Single Molecule Flow Stretching Experiments: The experimental details have been described by Xiong et al. Briefly, flow cells were constructed by sandwiching a double-sided tape with pre-cut channels between a poly(ethylene glycol) (PEG) functionalized coverslip and a PDMS slab containing inlet and outlet holes. The biotin-λ-DNA was made by ligating a DNA oligo with a biotin attached to the 5′ overhang of λ-DNA, and then immobilized onto the flow channel surface by utilizing biotin and streptavidin chemistry. Samples were infused at 10-400 pM concentrations at rates of 25 ml/hr. The assay buffer consisted of 10 mM phosphate buffer, 2 mM NaCl, 50 μM EDTA, 20 mM ethanol, 5% (v/v) glycerol, 0.01% Tween-20 and 0.1% (v/v) $-mercaptoethanol, and the pH was adjusted to 7.4 by adding aliquots of concentrated NaOH solution. Individual dye-labeled molecules were imaged by using a home-built total internal reflection fluorescence microscope based on a Nikon Ti body with a Hamamatsu ORCA-Flash 4.0 VI camera. Applicants used customized single particle tracking software to process the raw image data^11.
To study the motion of single molecules bound to DNA, Applicants applied a single-molecule flow-stretching assay that prepares long double-stranded DNA molecules as spatially extended templates for analysis of binding and transport activity of molecular sleds labeled with fluorescent dye molecules. […] In this assay (see a schematic in FIG. 19), functionalized DNA, e.g., biotin-k-DNA, was immobilized to a flow channel surface by one end and a laminar flow was applied to flow stretch the DNA. The flow rate was chosen so that the contribution of DNA fluctuations to the apparent motion of DNA-bound molecules along the DNA is negligible and the trajectories of single molecules were tracked by time-lapse fluorescence imaging. Here, Applicants applied the flow-stretching assay to study one-dimensional diffusion of modified peptides, peptide analogs and synthetic small molecules bound to DNA.

30 bp dsDNA [4] = conditions: Table S1; Cy3B conjugated to Cys residues; results from Xiong et al; cited from earlier work

For “C(-TMR)-(K)13: TMR conjugated to Cys residue, SEQ ID NO: 36 (C(TMR)KKKKKKKKKKKKK)”, the “D1 ± s.e.” value (λ-DNA [1]; Table S3) is given as 19.9 ± 1.3 M(bp^2/S).

For “TMR-(K)13: TMR conjugated to the N-terminal amine, SEQ ID NO: 38 ({TMR″}-KKKKKKKKKKKKK)”, the “D1 ± s.e.” value (λ-DNA [1]; Table S3) is listed as 8.9 ± 0.5 M(bp^2/S).

With FHHHHH the estimated 1D diffusion constants, D (phage λ DNA) was 14.9 ± 6.9 million bp²/s.

For “C(-TMR)-(R)13: TMR conjugated to Cys residue, SEQ ID NO: 37 (C(TMR)RRRRRRRRRRRRR)”, the “D1 ± s.e.” value (λ-DNA [1]; Table S3) is given as 12.9 ± 0.5 M(bp^2/S).

With “GRKKRRQRRRPPQ (also: TMR label, place not given here) [TAT]” the estimated 1D diffusion constants, D (phage λ DNA) was 21 ± 7.5 million bp²/s.

For “NVKRRTHNVLERQRRNELKRSFFALRDQ [cMyc helix]”, the “1D diffusion constant, D+SD” value (phage λ DNA) was 12.8±5.0 ×10^6 bp^2s^−1 and the “1D diffusion constant, D+SEM” value (phage λ DNA) was 12.8±0.3 ×10^6 bp^2s^−1.

With KRARNTEAARRSRAR [GCN4 helix] the “1D diffusion constant, D+SD” value (phage λ DNA) was 12.8±5.5 ×10^6 bp^2s^−1 and the “1D diffusion constant, D+SEM” value (phage λ DNA) was 12.8±0.6 ×10^6 bp^2s^−1.

For “TMR-(R)13: TMR conjugated to the N-terminal amine, SEQ ID NO: 39 ({TMR″}-RRRRRRRRRRRRR)”, the “D1 ± s.e.” value (λ-DNA [1]; Table S3) is listed as 7.7 ± 0.7 M(bp^2/S).

In the case of “(K)13: TMR-labeled lysine homopolymer of 13 residues, SEQ ID NO: 52 (KKKKKKKKKKKKK; also: TMR-labeled, place not given here)”, the estimated 1D diffusion constants, D (phage λ DNA) is reported as 17.3 ± 5.3 million bp²/s.

In the case of Cy3B-pentaethylenehexamine [Cy3B-PEHA], the Kd (30 bp dsDNA [2]) is reported as 1320 ± 248 nM, the “effect of increasing the salt concentration on the D1 value” (λ-DNA [3]; 2 mM NaCl vs 20 mM NaCl buffers, pH 7.4 (FIG. 14)) is reported as “does not increase” and the “D1 ± s.e.” value (λ-DNA [3]) is reported as 10.1 ± 0.5 M(bp^2/S). The “D1 ± s.e.” value (λ-DNA [3]; listed as PHEA-Cy3B) was 10.1±0.5 M(bp^2/S).

For “KRARNTEAARRSRAR-GSGSGS-pVIc [GCN4 helix-linker-pVIc]”, the “1D diffusion constant, D+SD” value (phage λ DNA) was 9.6±4.3 ×10^6 bp^2s^−1 and the “1D diffusion constant, D+SEM” value (phage λ DNA) was 9.6±0.7 ×10^6 bp^2s^−1.

For GVQSLKRRRCF [pVlc-Cy38], the “D1 ± s.e.” value (λ-DNA [1]; Table S1, Cy3B conjugated to Cys residues) is given as 35.1 ± 0.8 M(bp^2/S), the “sliding by itself (one-dimensional diffusion constant)” value (λ-DNA [1]; literature reference 11 (Xiong)) is given as 35.2±0.8 M(bp2/s) and the Kd (30 bp dsDNA [4]) is given as 378 ± 20 nM.

For “KRARNTEAARRSRAR-GSGSGS-KRRR (KRARNTEAARRSRARGSGSGSKRRR) [GCN4 helix-linker-KRRR]”, the “1D diffusion constant, D+SD” value (phage λ DNA) was 11.3±4.1 ×10^6 bp^2s^−1 and the “1D diffusion constant, D+SEM” value (phage λ DNA) was 11.3±0.6 ×10^6 bp^2s^−1.

In the case of KRRR ({TMR″}-KRRR), the estimated 1D diffusion constants, D (phage λ DNA) is reported as 20.3 ± 7.9 million bp²/s.

“STSRHKKLMFKTE ({TMR″}-STSRHKKLMFKTE) [C-terminal sequence of p53]” showed an estimated 1D diffusion constants, D (phage λ DNA) of 17.3 ± 5.3 million bp²/s.
